Results taken from PubChem BioAssay (NCI).
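Where inhibition never reached the appropriate level, the endpoint shown equals the highest concentration tested. Otherwise, values were interpolated linearly from a five-concentration, 48-hour dose response in 96-well plates. At the GI50, growth is halved. TGI is the concentration that stops growth completely.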 Where a SMILES comes first, the peptide text is derived from it. [ ]: non-standard residue; d: D form. The star is where a group is joined. Ac5c = NC1(C(=O)O)CCCC1; Boc = CC(C)(C)OC(=O)*; tBu = CC(C)(C)*

How the values were obtained:
Assay in all cases: NCI anticancer screen, dose series, 48 h
OVCAR-3 ovarian = test system: OVCAR-3 ovarian
HCT-116 colon = test system: HCT-116 colon
SN12C renal = test system: SN12C renal
MDA-MB-231 breast = test system: MDA-MB-231 breast
HS 578T breast = test system: HS 578T breast
SNB-19 CNS = test system: SNB-19 CNS
OVCAR-5 ovarian = test system: OVCAR-5 ovarian
NCI-H23 lung = test system: NCI-H23 lung
CCRF-CEM leukemia = test system: CCRF-CEM leukemia
NCI-H226 lung = test system: NCI-H226 lung
DU-145 prostate = test system: DU-145 prostate
HOP-62 NSCLC = test system: HOP-62 NSCLC
SF-268 CNS = test system: SF-268 CNS
HL-60(TB) leukemia = test system: HL-60(TB) leukemia
MDA-MB-435 = test system: MDA-MB-435
UACC-257 melanoma = test system: UACC-257 melanoma
RPMI-8226 leukemia = test system: RPMI-8226 leukemia
HT29 colon = test system: HT29 colon
SK-MEL-2 melanoma = test system: SK-MEL-2 melanoma
RXF 393 renal = test system: RXF 393 renal
SF-295 CNS = test system: SF-295 CNS
ACHN renal = test system: ACHN renal
NCI/ADR-RES ovarian = test system: NCI/ADR-RES ovarian
M14 melanoma = test system: M14 melanoma
SK-MEL-28 melanoma = test system: SK-MEL-28 melanoma
UO-31 renal = test system: UO-31 renal
LOX IMVI melanoma = test system: LOX IMVI melanoma
T-47D breast = test system: T-47D breast
PC-3 prostate = test system: PC-3 prostate
K-562 leukemia = test system: K-562 leukemia
MALME-3M melanoma = test system: MALME-3M melanoma
NCI-H460 lung = test system: NCI-H460 lung
KM12 colon = test system: KM12 colon
SF-539 CNS = test system: SF-539 CNS
HCT-15 colon = test system: HCT-15 colon
HCC-2998 colon = test system: HCC-2998 colon
A498 renal = test system: A498 renal
OVCAR-8 ovarian = test system: OVCAR-8 ovarian
U251 CNS = test system: U251 CNS
SW-620 colon = test system: SW-620 colon
BT-549 breast = test system: BT-549 breast
HOP-92 NSCLC = test system: HOP-92 NSCLC
IGROV1 ovarian = test system: IGROV1 ovarian
NCI-H522 lung = test system: NCI-H522 lung
786-0 renal = test system: 786-0 renal
EKVX NSCLC = test system: EKVX NSCLC
COLO 205 colon = test system: COLO 205 colon
A549 NSCLC = test system: A549 NSCLC
SK-OV-3 ovarian = test system: SK-OV-3 ovarian
CAKI-1 renal = test system: CAKI-1 renal
TK-10 renal = test system: TK-10 renal
SK-MEL-5 melanoma = test system: SK-MEL-5 melanoma
MCF7 breast = test system: MCF7 breast
UACC-62 melanoma = test system: UACC-62 melanoma

For `Cc1cc(C2CC(O)C(CO)O2)c(Br)cc1Br` (configuration not stated), the GI50 (OVCAR-3 ovarian) was > 100 µM, the TGI (OVCAR-3 ovarian) was > 100 µM and the GI50 (HCT-116 colon) was > 100 µM. The TGI (HCT-116 colon) was > 100 µM, the GI50 (SN12C renal) was > 100 µM and the TGI (SN12C renal) was > 100 µM. For the same molecule, the GI50 (MDA-MB-231 breast) was 58.5 µM, the TGI (MDA-MB-231 breast) was > 100 µM and the GI50 (HS 578T breast) was 49.9 µM. For the same molecule, the TGI (HS 578T breast) was > 100 µM, the GI50 (SNB-19 CNS) was > 100 µM and the TGI (SNB-19 CNS) was > 100 µM. The GI50 (OVCAR-5 ovarian) was > 100 µM, the TGI (OVCAR-5 ovarian) was > 100 µM and the GI50 (NCI-H23 lung) was > 100 µM. For the same molecule, the TGI (NCI-H23 lung) was > 100 µM, the GI50 (CCRF-CEM leukemia) was > 100 µM and the TGI (CCRF-CEM leukemia) was > 100 µM. For the same molecule, the GI50 (NCI-H226 lung) was > 100 µM, the TGI (NCI-H226 lung) was > 100 µM and the GI50 (DU-145 prostate) was > 100 µM. The TGI (DU-145 prostate) was > 100 µM, the GI50 (HOP-62 NSCLC) was > 100 µM and the TGI (HOP-62 NSCLC) was > 100 µM. The GI50 (SF-268 CNS) was > 100 µM, the TGI (SF-268 CNS) was > 100 µM and the GI50 (HL-60(TB) leukemia) was 73.4 µM. For the same molecule, the TGI (HL-60(TB) leukemia) was > 100 µM, the GI50 (MDA-MB-435) was > 100 µM and the TGI (MDA-MB-435) was > 100 µM. For the same molecule, the GI50 (UACC-257 melanoma) was > 100 µM, the TGI (UACC-257 melanoma) was > 100 µM and the GI50 (RPMI-8226 leukemia) was 85.8 µM. The TGI (RPMI-8226 leukemia) was > 100 µM, the GI50 (HT29 colon) was 99.1 µM and the TGI (HT29 colon) was > 100 µM. The GI50 (SK-MEL-2 melanoma) was > 100 µM, the TGI (SK-MEL-2 melanoma) was > 100 µM and the GI50 (RXF 393 renal) was > 100 µM. For the same molecule, the TGI (RXF 393 renal) was > 100 µM, the GI50 (SF-295 CNS) was > 100 µM and the TGI (SF-295 CNS) was > 100 µM. The GI50 (ACHN renal) was > 100 µM, the TGI (ACHN renal) was > 100 µM and the GI50 (NCI/ADR-RES ovarian) was > 100 µM. The TGI (NCI/ADR-RES ovarian) was > 100 µM, the GI50 (M14 melanoma) was > 100 µM and the TGI (M14 melanoma) was > 100 µM. For the same molecule, the GI50 (SK-MEL-28 melanoma) was > 100 µM, the TGI (SK-MEL-28 melanoma) was > 100 µM and the GI50 (UO-31 renal) was > 100 µM. The TGI (UO-31 renal) was > 100 µM, the GI50 (LOX IMVI melanoma) was 80.2 µM and the TGI (LOX IMVI melanoma) was > 100 µM. The GI50 (T-47D breast) was > 100 µM, the TGI (T-47D breast) was > 100 µM and the GI50 (PC-3 prostate) was > 100 µM. For the same molecule, the TGI (PC-3 prostate) was > 100 µM, the GI50 (K-562 leukemia) was > 100 µM and the TGI (K-562 leukemia) was > 100 µM. For the same molecule, the GI50 (MALME-3M melanoma) was > 100 µM, the TGI (MALME-3M melanoma) was > 100 µM and the GI50 (NCI-H460 lung) was > 100 µM. The TGI (NCI-H460 lung) was > 100 µM, the GI50 (KM12 colon) was > 100 µM and the TGI (KM12 colon) was > 100 µM. For the same molecule, the GI50 (SF-539 CNS) was > 100 µM, the TGI (SF-539 CNS) was > 100 µM and the GI50 (HCT-15 colon) was > 100 µM. For the same molecule, the TGI (HCT-15 colon) was > 100 µM, the GI50 (HCC-2998 colon) was > 100 µM and the TGI (HCC-2998 colon) was > 100 µM. For the same molecule, the GI50 (A498 renal) was 36.7 µM, the TGI (A498 renal) was > 100 µM and the GI50 (OVCAR-8 ovarian) was > 100 µM. For the same molecule, the TGI (OVCAR-8 ovarian) was > 100 µM, the GI50 (U251 CNS) was > 100 µM and the TGI (U251 CNS) was > 100 µM. For the same molecule, the GI50 (SW-620 colon) was > 100 µM, the TGI (SW-620 colon) was > 100 µM and the GI50 (BT-549 breast) was > 100 µM. For the same molecule, the TGI (BT-549 breast) was > 100 µM, the GI50 (HOP-92 NSCLC) was > 100 µM and the TGI (HOP-92 NSCLC) was > 100 µM. For the same molecule, the GI50 (IGROV1 ovarian) was 33.8 µM, the TGI (IGROV1 ovarian) was > 100 µM and the GI50 (NCI-H522 lung) was > 100 µM. The TGI (NCI-H522 lung) was > 100 µM, the GI50 (786-0 renal) was > 100 µM and the TGI (786-0 renal) was > 100 µM. For the same molecule, the GI50 (EKVX NSCLC) was 84.5 µM, the TGI (EKVX NSCLC) was > 100 µM and the GI50 (COLO 205 colon) was > 100 µM. For the same molecule, the TGI (COLO 205 colon) was > 100 µM, the GI50 (A549 NSCLC) was > 100 µM and the TGI (A549 NSCLC) was > 100 µM. For the same molecule, the GI50 (SK-OV-3 ovarian) was > 100 µM, the TGI (SK-OV-3 ovarian) was > 100 µM and the GI50 (CAKI-1 renal) was > 100 µM. For the same molecule, the TGI (CAKI-1 renal) was > 100 µM, the GI50 (TK-10 renal) was > 100 µM and the TGI (TK-10 renal) was > 100 µM. For the same molecule, the GI50 (SK-MEL-5 melanoma) was > 100 µM, the TGI (SK-MEL-5 melanoma) was > 100 µM and the GI50 (MCF7 breast) was > 100 µM. The TGI (MCF7 breast) was > 100 µM, the GI50 (UACC-62 melanoma) was 49.7 µM and the TGI (UACC-62 melanoma) was > 100 µM.

For `CC(OC(C)(C)C)C1NC(=O)C(CCCCNC(=O)OC(C)(C)C)NC(=O)C(Cc2c[nH]c3ccccc23)NC(=O)C(Cc2ccccc2)NC(=O)C2(CCCC2)NC(=O)C(Cc2ccccc2)NC1=O` (configuration not stated) (cyclo([Ac5c]FWK(Boc)T(tBu)F); configuration not given here), the TGI (NCI-H23 lung) was > 100 µM, the TGI (NCI-H226 lung) was 47.6 µM and the TGI (UACC-257 melanoma) was 46.6 µM. The TGI (HOP-92 NSCLC) was 67.1 µM.
